Results from patent US20040209907A1, “Formulation and methods for the treatment of thrombocythemia” (priority 2003, published 2004).
Where “and” joins values, the source holds several entries; their conditions need not be identical. Equal values may be shown once. Read-outs that look alike come from different tables or passages of the source.

Key:
[1] = Permeation of anagrelide from saturated solutions through human epidermis (Franz-type diffusion cells); type: in vitro ADME; conditions: for Amt permeated at 24 hours: human epidermis
[2] = Plasma levels of anagrelide and metabolite A after oral, intra-venous and transdermal anagrelide in the mini-pig; type: in vivo; conditions: for AUC / Cmax: mini-pig n=3, plasma analyte = label
Description: The plasma level of anagrelide and metabolite A were measured in a mini-pig study following oral, intra-venous and transdermal administration of anagrelide.
The comparative bioavailability of anagrelide following oral administration of 1 mg or the dermal application of a saturated solution to ˜45 cm2 surface area of the back was assessed in three minipigs. Standard AgrylinR capsules (2×0.5 mg) were administered orally to fasted animals, whereas the dermal formulation was a saturated solution of the drug in 5% (v/v) oleic acid in propylene glycol.
Plasma concentrations of anagrelide and its metabolites were determined by a validated LC-MS/MS assay. Pharmacokinetic parameters were calculated by non-compartmental methods using WinNonlin.
Studies in the Mini-Pig (n=3)

CD34+ cells = assay: Megakaryocyte number in thrombopoietin-expanded CD34+ cell cultures; type: cell-based; conditions: for effect on number of megakaryocytes: day-8 cultures; for number of megakaryocytes: day-12 cultures
Source text: Cells were harvested for analysis after 4 or 8 days of the initiation of drug treatment (day-8 and day-12 cultures, respectively). As shown in FIG. 2 in day-8 cultures no effect of anagrelide could be detected.

[3] = Permeation of anagrelide from saturated solutions through human epidermis (Franz-type diffusion cells); type: in vitro ADME
Description: Saturated Solutions of Anagrelide were Prepared in:
1. 5% lauryl alcohol in isopropyl myristate (LA in IPM)
2. 2% oleic acid in propylene glycol (OA in PG)
3. 0.5% oleic acid in propylene glycol
4. 5% glyceryl monooleate in isopropyl myristate (GMO in IPM)
5. 5% glyceryl laurate in isopropyl myristate (GLA in IPM)
9. Isopropyl myristate (IPM)
11. 5% oleic acid (OA) in propylene glycol (PG)
12. 70:30 (v/v) dimethyl sulfoxide: propylene glycol
An analytical method using HPLC with UV detection was established for anagrelide. Six point calibration curves were generated over the range 0.2-2 μg/ml were generated for each analytical run and the precision confirmed on each occasion by the making at least 7 replicate injections of the highest standard. Details of the equipment and methods used are given below.
Human epidermis was prepared by the heat separation technique (A. M. Kligman and E Christophers, Preparation of isolated sheets of human stratum corneum. Arch Dermatol., vol. 88, 70-73 (1963). Water was heated to 60° C. on a hotplate and the skin was immersed in the water at this temperature for 1 minute. The skin was then removed from the water and the epidermis carefully peeled off using blunt tweezers. Care was taken not to introduce any holes in this process. The epidermal tissue was placed on a filter paper stratum corneum uppermost. The samples were then stored in freezer.
Franz-type horizontal glass diffusion cells were used. The receptor medium was thermostatted at 37° C., to represent body temperature. There will be a temperature gradient across the membrane and applied solution, but this should simulate ‘in use’ conditions. Under these conditions the surface temperature of the skin was 32° C.
The skin samples were thawed overnight before use. The epidermal membranes were cut to size and were placed between the two halves of the cells. High vacuum grease was used to seal the two compartments. The cell was clamped using a metal holder. The receptor arm was closed using glass caps to prevent evaporation. The donor compartment was occluded to prevent any donor solution evaporation
The receptor medium was first introduced and equilibrated for 1 h. 1 mL of the saturated solution with excess drug was applied in the donor compartment. Excess drug was used to ensure there is no depletion of the drug during the course of the experiment. The starting time was taken as the time at which the solutions were applied.
At set sampling points (12, 24, 30, 36 and 48 hours), 200 μL of the receptor phase from each diffusion cell was removed for analysis of the anagrelide and replaced by an equivalent of fresh receptor phase solution pre-thermostatted to 37° C.
For each solution, six replicates were tested. A control (without any formulation applied in the donor compartment) was also examined.

[4] = Pharmacokinetics in healthy male volunteers after a single dose of anagrelide; conditions: healthy male volunteers N=38; single 1 mg oral dose of anagrelide; analyte = label
Source text: Summary of mean Pharmacokinetic Parameters of Anagrelide in Volunteers after a Single Dose of the Drug

[5] = Pharmacokinetics in patients with myeloproliferative disease at steady state; conditions: patients N=18, multiple dosing, analyte = label
platelet = assay: Therapeutic platelet lowering action
[6] = dog, in vivo
Description: (§1) A study was conducted in a large group of dogs comparing metabolite A with the standard reference inotrope milrinone.

PDE III = PDE III activity of anagrelide and metabolite A; type: biochemical
Description: Inhibition of PDE III, which is present in myocardium, causes an increase in both the force and rate of cardiac contractility. These are undesirable side effects for a platelet reducing agent.
The PDE III activity of both anagrelide and metabolite A was evaluated by standard methods.

[7] = Cardiovascular study in dogs comparing metabolite A with milrinone
Description: as §1

[8] = anagrelide Dermal, saturated solution in 5% OA in PG, ~45 cm2, 24 h
[9] = anagrelide Intra-venous 1 mg/propylene glycol

**Q.** For O=C1CN2Cc3c(ccc(Cl)c3Cl)N=C2N1 [Anagrelide], which “Cav from the maximum likely flux rate through human skin” value ([1]; calculated for transdermal delivery in man) is on record?
**A.** 3 to 4 ng/mL

**Q.** What about the “Amt permeated at 24 hours” value ([1]; saturated solution in 0.5% OA in PG) of the same compound?
**A.** 0.5 μg/cm^2

**Q.** And the “Amt permeated at 24 hours” value ([1]; saturated solution in 70:30 DMSO:PG ('gold standard'))?
**A.** 8.4 μg/cm^2

**Q.** What about the “Amt permeated at 24 hours” value ([1]; saturated solution in 70:30 DMSO:PG ('gold standard'), listed as anagrelide) of the same compound?
**A.** 8.41 μg/cm^2

**Q.** And the “Amt permeated at 24 hours” value ([1]; saturated solution in Ethanol)?
**A.** 0.9 μg/cm^2

**Q.** And the “Amt permeated at 24 hours” value ([1]; saturated solution in Formulation 1 (Labrasol, Plurol Oleique, Labrafac Lipophile, propylene glycol))?
**A.** 2.1 μg/cm^2

**Q.** What about the “Amt permeated at 24 hours” value ([1]; saturated solution in Formulation 2 (Labrafil M 1944CS, Labrafac Lipophile, Labrasol, Plurol oleique, water)) of the same compound?
**A.** 1.5 μg/cm^2

**Q.** And the “Amt permeated at 24 hours” value ([1]; saturated solution in Glycerol)?
**A.** 0.04 μg/cm^2

**Q.** And the “Amt permeated at 24 hours” value ([1]; saturated solution in PG (propylene glycol))?
**A.** 0.5 μg/cm^2 and 0.54 μg/cm^2

**Q.** What about the “Amt permeated at 24 hours” value ([1]; saturated solution in PG (propylene glycol), listed as anagrelide) of the same compound?
**A.** 0.5 μg/cm^2

**Q.** And the “Amt permeated at 24 hours” value ([1]; saturated solution in Transcutol)?
**A.** 0.0 μg/cm^2 and 0 μg/cm^2

**Q.** And the “Amt permeated at 24 hours” value ([1]; saturated solution in Triacetin)?
**A.** 0.0 μg/cm^2 and 0 μg/cm^2

**Q.** And the AUC [2, 8]?
**A.** 10.8 ng·h/mL

**Q.** What about the Cmax [2, 8] of the same compound?
**A.** 0.69 ng/mL

**Q.** What about the AUC [2, 9] of the same compound?
**A.** 50.7 ng·h/mL

**Q.** What about the Cmax [2, 9] of the same compound?
**A.** 87.1 ng/mL

**Q.** And the AUC ([2]; anagrelide Oral 1 mg/capsule)?
**A.** 10.3 ng·h/mL

**Q.** What about the Cmax ([2]; anagrelide Oral 1 mg/capsule) of the same compound?
**A.** 1.45 ng/mL

**Q.** What about the “decline in concentrations post-peak prior to wash-off at 24 h” value ([2]; mini-pig, dermal application) of the same compound?
**A.** 50%

**Q.** What about the average dermal flux ([2]; mini-pig, dermal saturated solution in 5% oleic acid in propylene glycol, estimated) of the same compound?
**A.** 197 ng/cm2/h

**Q.** And the “maximum plasma concentration lower following dermal application versus oral” value ([2]; mini-pig, dermal versus oral 1 mg)?
**A.** 50%

**Q.** And the “exposure to anagrelide, dermal versus oral route” value ([2]; mini-pig, oral 1 mg versus dermal saturated solution)?
**A.** comparable exposure

**Q.** And the “effect on number of megakaryocytes” value (CD34+ cells; continuous exposure to 4 ng/ml anagrelide (~13 nM))?
**A.** no effect

**Q.** And the number of megakaryocytes (CD34+ cells; continuous exposure to 4 ng/ml anagrelide (~13 nM), p=0.038, n=3)?
**A.** 77±5 % of control

**Q.** And the “effect on number of megakaryocytes” value (CD34+ cells; single dose of 40 ng/ml anagrelide (~133 nM))?
**A.** no effect

**Q.** What about the number of megakaryocytes (CD34+ cells; single dose of 40 ng/ml anagrelide (~133 nM), p=0.015, n=3) of the same compound?
**A.** 68±4 % if control

**Q.** What about the “Amt permeated at 24 hours” value ([3]; saturated solution in 2% OA in PG) of the same compound?
**A.** 8.9 μg/cm^2

**Q.** What about the “Amt permeated at 24 hours” value ([3]; saturated solution in 5% GLA in IPM) of the same compound?
**A.** 5.2 μg/cm^2

**Q.** What about the “Amt permeated at 24 hours” value ([3]; saturated solution in 5% GMO in IPM) of the same compound?
**A.** 5.7 μg/cm^2

**Q.** And the “Amt permeated at 24 hours” value ([3]; saturated solution in 5% LA in IPM)?
**A.** 0.5 μg/cm^2

**Q.** And the “Amt permeated at 24 hours” value ([3]; saturated solution in 5% OA in PG)?
**A.** 4.4 μg/cm^2

**Q.** What about the “Amt permeated at 24 hours” value ([3]; saturated solution in IPM (isopropyl myristate)) of the same compound?
**A.** 1.5 μg/cm^2

**Q.** What about the “AUC0-inf ± RSD (%)” value [4] of the same compound?
**A.** 11.1 ± 37.6 ng·h/mL

**Q.** What about the “Cmax ± RSD (%)” value [4] of the same compound?
**A.** 4.99 ± 74.4 ng/mL

**Q.** What about the “Tmax ± RSD (%)” value [4] of the same compound?
**A.** 1.3 ± 53.8 h

**Q.** What about the “t1/2 ± RSD (%)” value [4] of the same compound?
**A.** 1.5 ± 49.8 h

**Q.** What about the “AUC0-t ± RE (AUC over dosage interval)” value [5] of the same compound?
**A.** 18.64(5.28) ng · h/mL

**Q.** What about the “Cmax ± RE” value [5] of the same compound?
**A.** 5.31(1.33) ng/mL

**Q.** And the “Tmax ± RE” value [5]?
**A.** 2.00(0.32) hours

**Q.** What about the “t1/2 ± RE” value [5] of the same compound?
**A.** 2.89(0.73) hours

**Q.** For O=C1NC2=Nc3ccc(Cl)c(Cl)c3CN2C1O (stereo not drawn) [Metabolite A], which “therapeutic platelet lowering action relative to anagrelide” value (platelet) is on record?
**A.** equipotent

**Q.** And the “effect on (+)dP/dt max (a measure of contractility)” value [6]?
**A.** well sustained and largely dose-dependent

**Q.** And the “maximum decrease in mean blood pressure” value [6]?
**A.** about 30 mmHg

**Q.** What about the “mean maximum increase in heart rate” value [6] of the same compound?
**A.** ~66 b.p.m.

**Q.** And the “potency relative to milrinone in decreasing mean blood pressure” value [6]?
**A.** 10 ×

**Q.** And the “potency relative to anagrelide as an inhibitor of PDEIII” value (PDE III; earlier in vitro studies)?
**A.** 40 fold

**Q.** What about the “PDE III potency relative to anagrelide” value (PDE III; standard methods) of the same compound?
**A.** 40 ×

**Q.** And the “potency as a cardiovascular agent relative to anagrelide” value (PDE III; statement)?
**A.** ~40 times

**Q.** For Cc1[nH]c(=O)c(C#N)cc1-c1ccncc1 [milrinone], which “effect on (+)dP/dt max (a measure of contractility)” value [7] is on record?
**A.** immediate, dose-dependent increases in (+)dP/dt max, but they were not well sustained

**Q.** What about the “maximum decrease in mean blood pressure” value ([7]; dose-dependent) of the same compound?
**A.** about 30 mmHg

**Q.** And the “mean maximum increase in heart rate” value ([7]; dose-dependent)?
**A.** ~76 b.p.m.
